According to article PMC9104902, “Spiro-Oxindole Skeleton Compounds Are Efficient Inhibitors for Indoleamine 2,3-Dioxygenase 1: An Attractive Target for Tumor Immunotherapy” (International Journal of Molecular Sciences, 2022):
“Also recorded” adds a separate entry of the source.

Assays:
[1] = target: T1, IDO1 expressed in 4T1 cells (Mus musculus, UniProt P28776); assay: IDO1 inhibitory assay in cell lines (kynurenine, IFN-γ induced), 4T1; type: cell-based; conditions: 100 μM inhibitor concentration
T1 construct: endogenous in cells; host or cells: 4T1 (IFN-γ induced)
Method: (§1) IDO1 cellular activity assay was carried out by standard literature protocols. […] First of all, cells grew in high glucose DMEM medium containing 10% FBS and antibiotics. […] Then, 1 × 10^4 cells were seeded in 96-well plates and cultivated in carbon dioxide incubator at 37 °C containing 5% CO2 for 24 h. On day two, each well in the plates were treated with fresh DMEM medium, which contained L-Trp (20 μg/mL), IFN-γ (10 ng/mL), and different concentrations of inhibitor. The plate was incubated for 48 h further. Then, 140 μL of supernatant from each well was transferred into centrifuge tubes correlatively. An amount of 10 μL of 30% trichloroacetic acid (w/v) was added to each tube aimed to precipitate proteins. Subsequently, sample incubation (65 °C, 30 min) was required to make the N′-formylkynurenine (NFK) change into kynurenine which was the final product. Soon afterwards, the sample was centrifuged at 8000 rpm for 10 min. An amount of 100 μL supernatant from each tube was transferred into a new 96-well plate with an equal amount of 2% pDMAB added. The concentration of kynurenine could be measured because it reacts with pDMAB to form a product with a UV–vis absorption at 492 nm. To estimate cell viability, 1 × 10^4 normal cells named L02 were seeded in 96-well flat bottom plates with a final volume of 200 μL of DMEM complete growth medium. After being incubated for 24 h at 37 °C, the culture was replaced by a fresh complete growth medium (200 μL) and four inhibitors (200 μM) were added individually. Then, 48 h later, the medium was replaced by PBS (180 μL) mixed with CCK8 solution (20 μL) in each well. Cell viability was evaluated by testing the OD450nm. Finally, all data in cell experiments were processed by GraphPad Prism 7.00 to obtain the IDO1 inhibitory percentage of each inhibitor in the cells and the cell viability.

[2] = target: IDO1 expressed in CT26 cells (Mus musculus, UniProt P28776); assay: IDO1 inhibitory assay in cell lines (kynurenine, IFN-γ induced), CT26; type: cell-based; conditions: 100 μM inhibitor concentration
Method: as §1

IDO1 [3] = target: T2, IDO1 (Homo sapiens, UniProt P14902); assay: Enzyme-based IDO1 inhibitory assay (UV–vis, product at 320 nm); type: biochemical; conditions: for IC50: 100 μM L-Trp, mean ± SD, three determinations; for Ki: L-Trp 50, 100, 150 μM, [S]/[V] against [I] plot (Cornish-Bowden); for Type of Inhibition: position of intersections in [S]/[V] against [I] plot
Method: The IDO1 inhibitory assay was performed according to standard literature protocols with some modifications. The UV–vis method was used for evaluating the inhibitory activity of inhibitors against IDO1. Specifically, IDO1 (1 μM, 1 mL) was prepared by phosphate buffer (100 mM, pH 6.5) containing catalase (200 μg/mL), methylene blue (10 μM), and ascorbic acid (10 mM, pH 6.5). Concentrations of every inhibitor were varied from 1 to 200 μM, and experimental samples were incubated at 37 °C for 10 min. Then, a certain concentration of L-Trp was added before monitoring the product at 320 nm by UV–vis spectrophotometer immediately.
The inhibition percent of each inhibitor was determined by [1 − (A/B)] × 100%, where A is the enzymatic activity of IDO1 with inhibitor added and B is the absence of the inhibitor. […] The plot was described by the percent inhibition against Log10 concentration of the inhibitor.
Ki values of inhibitors were obtained by intersection of the three fitted lines in the plot, which was the absolute value of the X-axis value of the intersection. The plot was described by [S]/[V] against inhibitor concentration, where [S] and [V] were the substrate concentration and the reaction velocity, respectively. Furthermore, protein-inhibitor binding modes were determined by the position of the intersections in the plot. Data processing was performed by Origin 7.5.

[4] = target: IDO1 expressed in HeLa cells (Homo sapiens, UniProt P14902); assay: IDO1 inhibitory assay in cell lines (kynurenine, IFN-γ induced), HeLa; type: cell-based; conditions: 100 μM inhibitor concentration
Method: as §1

[5] = target: T3, IDO1 expressed in MCF-7 cells (Homo sapiens, UniProt P14902); assay: IDO1 inhibitory assay in cell lines (kynurenine, IFN-γ induced), MCF-7; type: cell-based; conditions: MCF7; 100 μM inhibitor concentration
T3 construct: endogenous in cells; host or cells: MCF-7 (IFN-γ induced)
Method: as §1

IDO1 [6] = target: T2, IDO1; assay: Determination of the inhibition types (reversible or irreversible; [V] versus [E] plot); type: biochemical; conditions: 100 μM inhibitor, 100 μM L-Trp
Method: Based on the results of UV–vis spectra, the determination of inhibitory types was carried out according to the reference. The inhibitor was defined as reversible if the fitted lines were intersected in the plot (Figure 4A).
Different concentrations of IDO1 (1 mL) were prepared with 100 mM phosphate buffer (pH 6.5) containing methylene blue (10 μM), catalase (200 μg/mL), and ascorbic acid (10 mM, pH 6.5). Each sample was incubated at 37 °C for 10 min. An amount of 100 μM L-Trp was added before measuring by UV–vis spectrophotometer at 320 nm. The only difference for the other set of groups was 100 μM inhibitor was added in each sample before incubating. The data were analyzed by Origin 7.5, and plot of reaction rate [V] versus enzyme amount [E] was proposed using linear fit. The determination of inhibitory types was based on the linear trend of the fitted plot.

T1 sequence (P28776 whole entry): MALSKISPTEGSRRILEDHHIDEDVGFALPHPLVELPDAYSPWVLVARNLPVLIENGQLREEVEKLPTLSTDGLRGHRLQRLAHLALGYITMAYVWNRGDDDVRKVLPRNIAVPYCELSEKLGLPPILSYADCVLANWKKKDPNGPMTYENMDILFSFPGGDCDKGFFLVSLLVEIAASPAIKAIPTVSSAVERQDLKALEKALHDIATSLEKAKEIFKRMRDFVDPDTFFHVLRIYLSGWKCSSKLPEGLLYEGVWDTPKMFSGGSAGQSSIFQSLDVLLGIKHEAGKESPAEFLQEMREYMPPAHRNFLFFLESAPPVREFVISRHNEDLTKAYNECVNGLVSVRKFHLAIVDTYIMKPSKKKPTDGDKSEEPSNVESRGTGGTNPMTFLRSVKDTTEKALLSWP
IDO1 expressed in CT26 cells, sequence (P28776 whole entry): as above
T2 sequence (P14902 whole entry): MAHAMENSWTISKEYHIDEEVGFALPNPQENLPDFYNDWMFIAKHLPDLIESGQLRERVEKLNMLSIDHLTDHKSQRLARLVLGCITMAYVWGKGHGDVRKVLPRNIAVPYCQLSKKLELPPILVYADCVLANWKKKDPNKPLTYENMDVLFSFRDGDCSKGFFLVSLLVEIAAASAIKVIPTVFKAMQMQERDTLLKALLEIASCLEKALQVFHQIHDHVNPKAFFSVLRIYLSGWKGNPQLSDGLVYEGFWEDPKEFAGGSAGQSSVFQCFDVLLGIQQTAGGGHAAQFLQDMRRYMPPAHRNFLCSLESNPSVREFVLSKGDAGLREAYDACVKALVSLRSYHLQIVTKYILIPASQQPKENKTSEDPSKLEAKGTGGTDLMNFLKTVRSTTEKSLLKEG
T3 sequence (P14902 whole entry): as above
IDO1 expressed in HeLa cells, sequence (P14902 whole entry): as above

inhibition at 100 µM [1] [%] | inhibition at 100 µM [2] [%] | IC50 (IDO1 [3]) [µM] | Ki (IDO1 [3]) [µM] | Type of Inhibition (IDO1 [3]) | inhibition at 100 µM [4] [%] | inhibition at 100 µM [5] [%] | increase of inhibitory activity by substituent modification (IDO1 [3]; IC50, methoxyl group at 6-position versus inhibitors 1 and 2) [times] | IDO1 inhibitory activity (IC50) relative to positive control 4−PI (IDO1 [3]; IC50 ratio versus 4−PI) | Inhibition type (reversible or irreversible) (IDO1 [6]) | Structure (SMILES)
2.6 ± 0.6 | 3.7 ± 0.8 | 25.2 ± 3.6 | 42.3 ± 0.8 | Uncompetitive | 25.5 ± 1.5 | 23.7 ± 2 | – | – | – | COC(=O)[C@H]1N[C@@H](c2ccccc2)[C@@]2(C(=O)Nc3ccccc32)[C@@H]1c1ccccc1 [inhibitor 1]
4.2 ± 1 | 4.2 ± 0.5 | 29.4 ± 1.3 | 49.5 ± 6 | Uncompetitive | 27.1 ± 2.1 | 22.4 ± 0.4 | – | – | – | COC(=O)[C@H]1N[C@@H](c2ccccc2)[C@@]2(C(=O)Nc3cc(C)ccc32)[C@@H]1c1ccccc1 [inhibitor 2]
4.3 ± 0.1 | 6.4 ± 0.8 | 7.9 ± 1.7 | 63.6 ± 3.5 | Uncompetitive | 26.7 ± 0.7 | 27.8 ± 0.3 | 3 | ~six-fold; also recorded: ~six times | reversible | COC(=O)[C@H]1N[C@@H](c2ccccc2)[C@@]2(C(=O)Nc3cc(OC)ccc32)[C@@H]1c1ccccc1 [inhibitor 3]
2.8 ± 0.3 | 1.7 ± 0.5 | 64.6 ± 3.9 | 101 ± 4.4 | Uncompetitive | 25.6 ± 1.3 | 20.7 ± 0.1 | – | – | – | COC(=O)[C@@H]1N[C@H](c2ccc(Br)cc2)[C@]2(C(=O)Nc3ccccc32)[C@H]1c1ccccc1 [inhibitor 4]
